Consider one substance from US20100040703A1, “USE OF NITRIC OXIDE” (priority 2008, published 2010).

For this assay, the system named is Influenza A/Victoria/H3N2. Description: Plaque assay on MDCK cells after exposure of virions to 160 ppm NO gas. Type of assay: cell-based. The following applies: for plaques (infectious virus titre): 160 ppm gNO.

Take Nitric oxide [NO-gas]: the “plaques (infectious virus titre)” value runs as follows: (exposure 0 mins) 250 ± 14 pfu/ml; (exposure 60 mins) 50 ± 11 pfu/ml; (exposure 120 mins) 43 ± 10 pfu/ml; (exposure 180 mins) 29 ± 14 pfu/ml. Further, under “virions exposed to 160 ppm NO before incubation with host cells”, the “less transmissible into host cells than the control group” value is “at least 80%”.
